Drawing on ChEMBL document CHEMBL1133736, “Modeling cyclooxygenase inhibition. Implication of active site hydration on the selectivity of ketoprofen analogues” (J Med Chem, 2000), this text covers IC50 for 2 compounds.

In assay [1] the target is T1, Prostaglandin G/H synthase 2 (Homo sapiens, UniProt P35354).
T1 sequence (P35354 whole entry): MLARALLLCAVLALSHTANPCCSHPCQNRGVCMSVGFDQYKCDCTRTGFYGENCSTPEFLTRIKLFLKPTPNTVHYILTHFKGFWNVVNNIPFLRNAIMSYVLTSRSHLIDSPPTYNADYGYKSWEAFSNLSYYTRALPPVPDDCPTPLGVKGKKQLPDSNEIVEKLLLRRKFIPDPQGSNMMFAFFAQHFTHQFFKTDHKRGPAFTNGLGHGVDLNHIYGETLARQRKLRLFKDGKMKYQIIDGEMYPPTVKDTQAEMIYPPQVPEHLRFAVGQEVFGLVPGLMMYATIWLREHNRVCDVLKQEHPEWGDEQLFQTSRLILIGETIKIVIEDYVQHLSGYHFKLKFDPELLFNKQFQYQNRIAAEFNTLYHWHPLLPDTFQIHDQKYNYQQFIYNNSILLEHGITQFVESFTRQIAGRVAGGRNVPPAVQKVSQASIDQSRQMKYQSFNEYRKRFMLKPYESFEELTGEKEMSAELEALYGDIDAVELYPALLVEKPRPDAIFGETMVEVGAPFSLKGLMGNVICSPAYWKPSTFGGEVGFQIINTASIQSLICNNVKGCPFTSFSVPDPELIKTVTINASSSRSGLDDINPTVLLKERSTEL
Briefly: Concentration required for 50% inhibition against Prostaglandin G/H synthase 2 from human.

The target in assay [2] is Prostaglandin G/H synthase 1 (Homo sapiens, UniProt P23219). Put plainly: Concentration required for 50% inhibition against Prostaglandin G/H synthase 1 from human.

The structures appear in SMILES notation.

Sequence of Prostaglandin G/H synthase 1 (P23219 whole entry): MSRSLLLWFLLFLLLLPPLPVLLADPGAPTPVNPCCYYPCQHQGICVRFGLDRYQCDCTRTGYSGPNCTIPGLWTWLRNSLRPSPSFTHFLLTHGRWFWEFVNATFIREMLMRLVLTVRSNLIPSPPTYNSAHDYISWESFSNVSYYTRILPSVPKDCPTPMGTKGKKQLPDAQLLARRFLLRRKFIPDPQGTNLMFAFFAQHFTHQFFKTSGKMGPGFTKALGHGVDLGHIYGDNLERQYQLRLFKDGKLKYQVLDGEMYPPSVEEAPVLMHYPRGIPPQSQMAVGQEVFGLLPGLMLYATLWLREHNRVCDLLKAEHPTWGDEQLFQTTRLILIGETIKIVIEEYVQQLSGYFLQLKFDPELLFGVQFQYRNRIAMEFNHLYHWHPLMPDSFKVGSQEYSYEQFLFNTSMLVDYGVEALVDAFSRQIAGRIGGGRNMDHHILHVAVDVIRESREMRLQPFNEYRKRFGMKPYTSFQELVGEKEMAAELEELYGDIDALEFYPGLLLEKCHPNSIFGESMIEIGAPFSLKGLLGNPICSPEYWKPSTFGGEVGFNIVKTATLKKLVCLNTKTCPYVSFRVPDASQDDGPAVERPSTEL

Usually IC50 stands for the concentration needed to halve the response being measured. Higher therefore signals weaker potency in that assay. As to `CC(C(=O)O)c1cc(C(=O)c2ccccc2)ccc1O` (stereo not drawn), the IC50 in assay [1] was 300 nM; in assay [2] it was 51 nM.

`COc1ccc(C(=O)c2ccccc2)cc1C(C)C(=O)O` (stereo not drawn) came in with an IC50 in assay [2] of 42 nM.
